Results: publication PMC8931317 (Proceedings of the National Academy of Sciences of the …, 2022)

Molecular target: T1, YeiE (CsYeiE) (Cronobacter sakazakii, UniProt H9BVC9)
T1 sequence (H9BVC9 85-288): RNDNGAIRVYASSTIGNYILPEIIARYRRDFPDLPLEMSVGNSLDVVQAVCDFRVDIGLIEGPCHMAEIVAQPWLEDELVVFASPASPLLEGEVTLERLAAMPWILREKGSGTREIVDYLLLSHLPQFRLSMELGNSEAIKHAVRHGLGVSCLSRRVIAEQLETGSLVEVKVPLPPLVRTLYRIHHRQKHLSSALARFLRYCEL
Assay: ITC
Type: binding

O=S(O)O [sulfite]
Kd: 1.38 µM
